According to PubChem BioAssay AID2060484 (Molecular Pharmacology Branch, DTP, NCI, 2025):
Values joined by “and” are separate entries in the source; they are usually repeats but may differ in a detail not shown here. Identical values can stand only once.

Test system: SUM149PT spheroids with HUVEC/MSC, viability
Test: Anticancer human tumor SUM149PT cell line growth inhibition [GQUAD];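 also: spheroids exposed to drugs for seven days before readout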;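 as to viability, T/C: percent viability relative to DMSO vehicle control taken as 100%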
Conditions: for viability, T/C: stronger effect = lower value
Text: DNA G-quadruplex Stabilizer Agents in Combinations in Complex Spheroids
A high-throughput screen of multi-cell type tumor spheroids was designed to identify active combinations of DNA G-quadruplex stabilizer agents and targeted small molecules. Complex spheroids include a stromal component modeled by human endothelial cells (HUVEC) and fibroblasts modeled by human mesenchymal stem cells (MSCs). The concentration ranges selected for each drug and investigational agent were based upon clinically achievable concentrations if the clinical Cmax of the agent was known.
Compounds. The drugs and investigational agents: pidnarulex (CX-5461; NSC782164), APTO-253 (NSC789042), BRACO-19 (NSC847499), peposertib (NSC802822), ceralasertib (NSC780249), elimusertib (NSC800525), camonsertib (NSC841442), AZD-1390 (NSC803789), olaparib (NSC753686), talazoparib (NSC767125), ART-558 (NSC835418), sotorasib (NSC818433), MRTX-1133 (NSC836407), SN-38 (NSC673596), topotecan (NSC609699), etoposide (NSC141540), doxorubicin (NSC123127), gemcitabine (NSC613327), 5-fluorouracil (NSC19893), paclitaxel (NSC125973), vemurafenib (NSC761431), panobinostat (NSC761190), R-306465 (JNJ-16241199; NSC773264), adavosertib (NSC754352), TP-3654 (NSC805149), carboplatin (NSC241240), KSQ-4279 (NSC840948), and staurosporine (NSC755774) were obtained from the National Cancer Institute (NCI) Developmental Therapeutics Program Chemical Repository (34). The FDA-approved anticancer drug set is available from the NCI Developmental Therapeutics Program. […] The stock solutions were prepared in dimethyl sulfoxide (DMSO, Sigma-Aldrich, St. Louis, MO, cat. D2650) at 800-fold the tested concentration and stored at -70 degrees C prior to their use. All drugs and investigational agents were tested over a range starting from a high concentration at or near the clinical Cmax and decreasing in half-log increments. If the clinical Cmax for an agent had not been determined, the highest concentration tested was 10 microM.
2.3 Cell Culture. All cells were maintained in an incubator at 37 degrees C and 5% CO2 with 95% humidity. The PDC lines were cultured according to standard operating procedures established by the NCI PDMR. All PDCs were thawed and cultured in Matrigel-coated flasks prepared with a working solution of 1X Ham's F-12 nutrient mix, without supplementation (Invitrogen, cat. 11765054), 100 U/mL penicillin-streptomycin (Invitrogen, cat. 15140122), and 2.5% Matrigel (Corning Inc., cat. 354248) for the first three passages. The 857933-349-R-J2-PDC line was cultured in 6C/Colon 1B media, which includes advanced DMEM/F-12 (Thermo Fisher Scientific, cat. 12634028), 10 mM HEPES (Thermo Fisher Scientific, cat. 15630080), 1X GlutaMAX supplement (Thermo Fisher Scientific, cat. 35050061), 0.1 mg/mL primocin (InvivoGen, cat. ant-pm-2), 10% defined fetal bovine serum, heat inactivated (HyClone Laboratories Inc., cat. SH30070.03HI), 50% L-WRN conditioned media (ATCC, cat. CRL-3276), 1.25 mM N-Acetyl-L-cysteine (Sigma-Aldrich, cat. A9165), 10 mM nicotinamide (Sigma-Aldrich, cat. N0636), 1X B-27 supplement (Thermo Fisher Scientific, cat. 17504044), 1X N-2 supplement (Thermo Fisher Scientific, cat. 17502048), 10 microM Y-27632 dihydrochloride (Tocris Bioscience, cat. 1254), and 50 ng/mL human EGF recombinant protein (Thermo Fisher Scientific, cat. PHG0311). The 485176-168-R4-J1-PDC line was cultured in Panc media, which includes all 6C/Colon 1B media components plus 100 ng/mL human FGF-10 (Thermo Fisher Scientific, cat. 100-26), 500 nM SB-431542 (Selleckchem, cat. S1067), and gastrin (Tocris, cat. 3006).
[…]

[1] = compound alone, run of 03/18/2024

Cc1cnc(CNC(=O)c2c(=O)c3ccc(N4CCCN(C)CC4)nc3n3c2sc2ccccc23)cn1
viability, T/C (compound 0.0316 µM): 87.8% [middle of 12 runs]
viability, T/C (compound 0.1 µM): 70% [middle of 12 runs]
viability, T/C (compound 0.316 µM): 57.5% [middle of 12 runs]
viability, T/C (compound 1 µM): 46.9% [middle of 12 runs]
viability, T/C (compound 3.16 µM): 36.2% [middle of 12 runs]
IC50 [1]: 725 nM [middle of 12 runs]

COc1ccc([C@@H](O)c2cc(-c3ncnc4cc(N5CCOCC5)ccc34)c(F)cc2Cl)nn1
viability, T/C (compound 0.0316 µM): 91.9% and 96.4% and 101%
viability, T/C (compound 0.1 µM): 89.4% and 85.8% and 88.5%
viability, T/C (compound 0.316 µM): 82.2% and 83.3% and 78.4%
viability, T/C (compound 1 µM): 55.6% and 57.7% and 45%
viability, T/C (compound 3.16 µM): 35% and 38.2% and 27.2%
viability, T/C (compound 10 µM): 22.3% and 28.1% and 20.7%
IC50 (curve of compound): 1420 nM and 1620 nM and 867 nM

CC(C)n1c(=O)n(C)c2cnc3cc(F)c(-c4ccc(OCCCN5CCCCC5)nc4)cc3c21 + Cc1cnc(CNC(=O)c2c(=O)c3ccc(N4CCCN(C)CC4)nc3n3c2sc2ccccc23)cn1
IC50 (curve of first compound, second compound 0.0316 µM): > 10000 nM
IC50 (curve of first compound, second compound 0.1 µM): > 10000 nM
IC50 (curve of first compound, second compound 0.316 µM): 3880 nM
IC50 (curve of first compound, second compound 1 µM): < 31.6 nM
IC50 (curve of first compound, second compound 3.16 µM): < 31.6 nM
IC50 (curve of first compound, second compound 10 µM): < 31.6 nM
viability, T/C (second compound 0.0316 µM, first compound 0.0316 µM): 56.4%
viability, T/C (second compound 0.0316 µM, first compound 0.1 µM): 51.5%
viability, T/C (second compound 0.0316 µM, first compound 0.316 µM): 55.8%
viability, T/C (second compound 0.0316 µM, first compound 1 µM): 59%
viability, T/C (second compound 0.0316 µM, first compound 3.16 µM): 59.9%
viability, T/C (second compound 0.0316 µM, first compound 10 µM): 48.9%
viability, T/C (second compound 0.1 µM, first compound 0.0316 µM): 55%
viability, T/C (second compound 0.1 µM, first compound 0.1 µM): 55.5%
viability, T/C (second compound 0.1 µM, first compound 0.316 µM): 52.6%
viability, T/C (second compound 0.1 µM, first compound 1 µM): 60.2%
viability, T/C (second compound 0.1 µM, first compound 3.16 µM): 64.7%
viability, T/C (second compound 0.1 µM, first compound 10 µM): 46.2%
viability, T/C (second compound 0.316 µM, first compound 0.0316 µM): 52%
viability, T/C (second compound 0.316 µM, first compound 0.1 µM): 57%
viability, T/C (second compound 0.316 µM, first compound 0.316 µM): 52.2%
viability, T/C (second compound 0.316 µM, first compound 1 µM): 50.9%
viability, T/C (second compound 0.316 µM, first compound 3.16 µM): 54.1%
viability, T/C (second compound 0.316 µM, first compound 10 µM): 35.5%
viability, T/C (second compound 1 µM, first compound 0.0316 µM): 39.6%
viability, T/C (second compound 1 µM, first compound 0.1 µM): 44.3%
viability, T/C (second compound 1 µM, first compound 0.316 µM): 48.4%
viability, T/C (second compound 1 µM, first compound 1 µM): 46.4%
viability, T/C (second compound 1 µM, first compound 3.16 µM): 48.8%
viability, T/C (second compound 1 µM, first compound 10 µM): 32.9%
viability, T/C (second compound 3.16 µM, first compound 0.0316 µM): 37.7%
viability, T/C (second compound 3.16 µM, first compound 0.1 µM): 41.1%
viability, T/C (second compound 3.16 µM, first compound 0.316 µM): 42%
viability, T/C (second compound 3.16 µM, first compound 1 µM): 43.5%
viability, T/C (second compound 3.16 µM, first compound 3.16 µM): 39.9%
viability, T/C (second compound 3.16 µM, first compound 10 µM): 31.5%
viability, T/C (second compound 10 µM, first compound 0.0316 µM): 0.24%
viability, T/C (second compound 10 µM, first compound 0.1 µM): 8.78%
viability, T/C (second compound 10 µM, first compound 0.316 µM): 32.2%
viability, T/C (second compound 10 µM, first compound 1 µM): 23%
viability, T/C (second compound 10 µM, first compound 3.16 µM): 1.78%
viability, T/C (second compound 10 µM, first compound 10 µM): 1.16%

CC1COCCN1c1cc(C2(O)CC3CCC(C2)O3)c2cnn(-c3ccn[nH]3)c2n1 (stereo not given)
viability, T/C (compound 0.0316 µM): 71.4% and 88.3% and 80.1%
viability, T/C (compound 0.1 µM): 28.2% and 38.6% and 42.2%
viability, T/C (compound 0.316 µM): 23.5% and 28.2% and 31.8%
viability, T/C (compound 1 µM): 21.8% and 24.9% and 25.9%
viability, T/C (compound 3.16 µM): 19.8% and 24.2% and 26.4%
viability, T/C (compound 10 µM): 14.5% and 15.5% and 18.8%
IC50 (curve of compound): 56.8 nM and 79 nM and 82.7 nM

O=C(NO)c1cnc(N2CCN(S(=O)(=O)c3ccc4ccccc4c3)CC2)nc1
viability, T/C (compound 0.0316 µM): 97.1% and 108% and 102%
viability, T/C (compound 0.1 µM): 86.9% and 95.1% and 86.5%
viability, T/C (compound 0.316 µM): 48.5% (2×) and 56.6%
viability, T/C (compound 1 µM): 0.52% and 2.34% and 1.78%
viability, T/C (compound 3.16 µM): 0.32% and 0.27% and 0.08%
viability, T/C (compound 10 µM): 0.29% and 0.71%
IC50 (curve of compound): 295 nM and 355 nM and 286 nM

Cc1[nH]c2ccc(F)cc2c1-c1nc2c3cccnc3c3ncccc3c2[nH]1
viability, T/C (compound 0.1 µM): 102% [middle of 12 runs]
viability, T/C (compound 0.316 µM): 104% [middle of 12 runs]
viability, T/C (compound 1 µM): 99% [middle of 12 runs]
viability, T/C (compound 10 µM): 98.4% [middle of 12 runs]
IC50 [1]: > 10000 nM
IC50 (compound alone, run of 03/26/2024): > 10000 nM
